Experimental data reported in patent publication US20070037709A1, “Polyethylene glycol esters of r-(+)-mcpp acid” (priority 2003, published 2007).
Read-outs that look alike come from different tables or passages of the source.

Columns and labels:
undesired plants = details: crop protection; cited from earlier work
lupin = tested on: lupin
Experimental: The compounds and mixtures of Examples 1 and 2 were tested for their activity for root penetration inhibition as specified in DIN 4062 (lupin test): […]

SMILES | herbicidal effectiveness compared with the S-(−) isomer or the racemic mixture (undesired plants) | Root penetration into (number) (lupin; Concentration 0.1%) | Root penetration through (number) (lupin; Concentration 0.1%) | Root penetration into (number) (lupin; Concentration 0.2%) | Root penetration through (number) (lupin; Concentration 0.2%) | Root penetration into (number) (lupin; Concentration 0.5%) | Root penetration through (number) (lupin; Concentration 0.5%) | Root penetration into (number) (lupin; Concentration 1.0%) | Root penetration through (number) (lupin; Concentration 1.0%)
Cc1cc(Cl)ccc1O[C@H](C)C(=O)O [R-(+) isomer, R-(+)-2-(4-chloro-2-methylphenoxy)propionic acid] | markedly more effective |  |  |  |  |  |  |  | 
Cc1cc(Cl)ccc1O[C@H](C)C(=O)OCCOCCOCCOCCOC(=O)[C@@H](C)Oc1ccc(Cl)cc1C [Example 1, diester of tetraethylene glycol with R-(+)-2-(4-chloro-2-methylphenoxy)propionic acid] |  | approx. 40 number | 0 number | approx. 15 number | 0 number | 1 number | 0 number |  | 
Cc1cc(Cl)ccc1O[C@@H](C)C(=O)OCCOCCOCCOCCOC(=O)[C@H](C)Oc1ccc(Cl)cc1C [Example 4, diester of tetraethylene glycol with S-(−)-2-(4-chloro-2-methylphenoxy)propionic acid] |  | >50 number | >50 number | >50 number | >50 number | >50 number | >50 number | approx. 40 number | approx. 40 number
Cc1cc(Cl)ccc1OC(C)C(=O)OCCOCCOCCOCCOC(=O)C(C)Oc1ccc(Cl)cc1C (racemic) [Example 2, diester of tetraethylene glycol with rac-2-(4-chloro-2-methylphenoxy)propionic acid] |  | approx. 40 number | 1 number | approx. 40 number | 0 number | approx. 10 number | 0 number | 0 number | 0 number
